Columns and labels:
Format in all cases: cell-based
Bacillus subtilis 65 = experiment: IO staining of colonies of beta-D-galactosidase positive/negative bacteria (Table IVb); conditions: Bacillus subtilis strain 65, b-gal −; 24 h on Nutrient Agar, 150 mg/l indicator, 100 mg/l IPTG; on C: Color of colonies: key: −: absent; +/−: weak; +: strong; ++: very strong; on F: Fluorescence of colonies: key: −: absent; +/−: weak; +: strong; ++: very strong
Salmonella illa 73 = experiment: as above; conditions: Salmonella illa strain 73, b-gal +; 24 h on Nutrient Agar, 150 mg/l indicator, 100 mg/l IPTG; further: key: −: absent; +/−: weak; +: strong; ++: very strong
Escherichia coli 270 = experiment: as above; conditions: Escherichia coli strain 270, b-gal +; 24 h on Nutrient Agar, 150 mg/l indicator, 100 mg/l IPTG; on C: Color of colonies: key: −: absent; +/−: weak; +: strong; ++: very strong; on G: Growth of colonies: key: −: absent; +/−: weak; +: strong; ++: very strong
Escherichia coli 61 = experiment: as above; conditions: Escherichia coli strain 61, b-gal +; 24 h on Nutrient Agar, 150 mg/l indicator, 100 mg/l IPTG; on C: Color of colonies: key: −: absent; +/−: weak; +: strong; ++: very strong; on G: Growth of colonies: key: −: absent; +/−: weak; +: strong; ++: very strong
[1] = tested on: Escherichia coli (O157:H7) 60; experiment: as above; conditions: Escherichia coli (O157:H7) strain 60, b-gal +; 24 h on Nutrient Agar, 150 mg/l indicator, 100 mg/l IPTG
[2] = tested on: Listeria monocytogenes (4b) 290; experiment: as above; conditions: Listeria monocytogenes (4b) strain 290, b-gal −; 24 h on Nutrient Agar, 150 mg/l indicator, 100 mg/l IPTG; on C: Color of colonies: key: −: absent; +/−: weak; +: strong; ++: very strong; on F: Fluorescence of colonies: key: −: absent; +/−: weak; +: strong; ++: very strong
Shigella sonnei 133 = experiment: as above; conditions: Shigella sonnei strain 133, b-gal +/−; 24 h on Nutrient Agar, 150 mg/l indicator, 100 mg/l IPTG; on C: Color of colonies: key: −: absent; +/−: weak; +: strong; ++: very strong; on G: Growth of colonies: key: −: absent; +/−: weak; +: strong; ++: very strong
[3] = tested on: Pseudomonas aeruginosa 168; experiment: as above; conditions: Pseudomonas aeruginosa strain 168, b-gal −, 24 h on Nutrient Agar, 150 mg/l indicator, 100 mg/l IPTG; on C: Color of colonies: key: −: absent; +/−: weak; +: strong; ++: very strong; on G: Growth of colonies: key: −: absent; +/−: weak; +: strong; ++: very strong
Aeromonas hydrophila 292 = experiment: as above; conditions: Aeromonas hydrophila strain 292, b-gal +; 24 h on Nutrient Agar, 150 mg/l indicator, 100 mg/l IPTG; on G: Growth of colonies: key: −: absent; +/−: weak; +: strong; ++: very strong
[4] = tested on: Staphylococcus saprophyticus 273; experiment: as above; conditions: Staphylococcus saprophyticus strain 273, b-gal +; 24 h on Nutrient Agar, 150 mg/l indicator, 100 mg/l IPTG; on G: Growth of colonies: key: −: absent; +/−: weak; +: strong; ++: very strong
[5] = tested on: Staphylococcus intermedius 31; experiment: as above; conditions: Staphylococcus intermedius strain 31, b-gal +; 24 h on Nutrient Agar, 150 mg/l indicator, 100 mg/l IPTG
Serratia marcescens 40 = experiment: as above; conditions: Serratia marcescens strain 40, b-gal +; 24 h on Nutrient Agar, 150 mg/l indicator, 100 mg/l IPTG; on G: Growth of colonies: key: −: absent; +/−: weak; +: strong; ++: very strong
[6] = tested on: Shigella dysenteriae Serovar 1 131; experiment: as above; conditions: Shigella dysenteriae Serovar 1 strain 131, b-gal +/−; 24 h on Nutrient Agar, 150 mg/l indicator, 100 mg/l IPTG
Escherichia coli = experiment: IN and IO staining of bacterial colonies under anaerobic conditions; conditions: Nutrient Agar plates, anaerobically incubated with E. coli
Protocol: Nutrient Agar plates containing 150 mg/l of various substrates and 100 mg/l IPTG were inoculated with Escherichia coli. Plates were put in an anaerobic jar (Anaerojar, Oxoid), an AnaeroGen sachet (Oxoid) was added, the jar was closed and incubated for 24 hours at 37° C.
IN staining cannot be used under anaerobic conditions.

[7] = tested on: Salmonella enteritidis 43; experiment: IO staining of colonies of beta-D-galactosidase positive/negative bacteria (Table IVb); conditions: Salmonella enteritidis strain 43, b-gal −; 24 h on Nutrient Agar, 150 mg/l indicator, 100 mg/l IPTG; further: key: −: absent; +/−: weak; +: strong; ++: very strong
[8] = tested on: Enterobacter aerogenes 242; experiment: as above; conditions: Enterobacter aerogenes strain 242, b-gal +; 24 h on Nutrient Agar, 150 mg/l indicator, 100 mg/l IPTG; on C: Color of colonies: key: −: absent; +/−: weak; +: strong; ++: very strong; on G: Growth of colonies: key: −: absent; +/−: weak; +: strong; ++: very strong
[9] = tested on: Klebsiella pneumoniae 164; experiment: as above; conditions: Klebsiella pneumoniae strain 164, b-gal +; 24 h on Nutrient Agar, 150 mg/l indicator, 100 mg/l IPTG; on C: Color of colonies: key: −: absent; +/−: weak; +: strong; ++: very strong; on G: Growth of colonies: key: −: absent; +/−: weak; +: strong; ++: very strong
Salmonella bongori 81 = experiment: as above; conditions: Salmonella bongori strain 81, b-gal +; 24 h on Nutrient Agar, 150 mg/l indicator, 100 mg/l IPTG; on C: Color of colonies: key: −: absent; +/−: weak/variable; +: strong; on G: Growth of colonies: key: −: absent; +/−: weak; +: strong; ++: very strong
Shigella boydii 135 = experiment: as above; conditions: Shigella boydii strain 135, b-gal −; 24 h on Nutrient Agar, 150 mg/l indicator, 100 mg/l IPTG; further: key: −: absent; +/−: weak; +: strong; ++: very strong
[10] = tested on: Yersinia enterocolitica 175; experiment: as above; conditions: Yersinia enterocolitica strain 175, b-gal +/−; 24 h on Nutrient Agar, 150 mg/l indicator, 100 mg/l IPTG; on G: Growth of colonies: key: −: absent; +/−: weak; +: strong; ++: very strong
Citrobacter freundii 181 = experiment: as above; conditions: Citrobacter freundii strain 181, b-gal +; 24 h on Nutrient Agar, 150 mg/l indicator, 100 mg/l IPTG; on C: Color of colonies: key: −: absent; +/−: weak; +: strong; ++: very strong; on G: Growth of colonies: key: −: absent; +/−: weak; +: strong; ++: very strong
Enterobacter cloacae 245 = experiment: as above; conditions: Enterobacter cloacae strain 245, b-gal +; 24 h on Nutrient Agar, 150 mg/l indicator, 100 mg/l IPTG; on C: Color of colonies: key: −: absent; +/−: weak; +: strong; ++: very strong; on G: Growth of colonies: key: −: absent; +/−: weak; +: strong; ++: very strong
[11] = tested on: Streptococcus agalactiae 195; experiment: as above; conditions: Streptococcus agalactiae strain 195, b-gal −; 24 h on Nutrient Agar, 150 mg/l indicator, 100 mg/l IPTG; on C: Color of colonies: key: −: absent; +/−: weak; +: strong; ++: very strong; on F: Fluorescence of colonies: key: −: absent; +/−: weak; +: strong; ++: very strong
Staphylococcus aureus 2 = experiment: as above; conditions: Staphylococcus aureus strain 2, b-gal −, 24 h on Nutrient Agar, 150 mg/l indicator, 100 mg/l IPTG; on F: Fluorescence of colonies: key: −: absent; +/−: weak; +: strong; ++: very strong

COc1ccc(C(=O)c2ccccc2-n2cc(O[C@@H]3O[C@H](CO)[C@H](O)[C@H](O)[C@H]3O)c3ccc(Cl)cc32)c(OC)c1 [Indicator I27a, 6-Chloro-1-[2-(2,4-dimethoxybenzoyl)phenyl]-1H-indol-3-yl-beta-D-galactopyranoside]
C: Color of colonies (Bacillus subtilis 65): − | F: Fluorescence of colonies (Bacillus subtilis 65): − | G: Growth of colonies (Bacillus subtilis 65): + | C: Color of colonies (Salmonella illa 73): − | F: Fluorescence of colonies (Salmonella illa 73): − | G: Growth of colonies (Salmonella illa 73): + | C: Color of colonies (Escherichia coli 270): ++ | F: Fluorescence of colonies (Escherichia coli 270): ++ | G: Growth of colonies (Escherichia coli 270): + | C: Color of colonies (Escherichia coli 61): ++ | F: Fluorescence of colonies (Escherichia coli 61): ++ | G: Growth of colonies (Escherichia coli 61): + | C: Color of colonies [1]: ++ | F: Fluorescence of colonies [1]: ++ | G: Growth of colonies [1]: + | C: Color of colonies [2]: − | F: Fluorescence of colonies [2]: − | G: Growth of colonies [2]: +/− | C: Color of colonies (Shigella sonnei 133): + | F: Fluorescence of colonies (Shigella sonnei 133): ++ | G: Growth of colonies (Shigella sonnei 133): + | C: Color of colonies [3]: − | G: Growth of colonies [3]: + | F: Fluorescence of colonies ([3]; footnote 1: blue autofluorescence): +^1 | C: Color of colonies (Aeromonas hydrophila 292): + | F: Fluorescence of colonies (Aeromonas hydrophila 292): + | G: Growth of colonies (Aeromonas hydrophila 292): + | C: Color of colonies [4]: +/− | F: Fluorescence of colonies [4]: +/− | G: Growth of colonies [4]: + | C: Color of colonies [5]: − | F: Fluorescence of colonies [5]: − | G: Growth of colonies [5]: +/− | C: Color of colonies (Serratia marcescens 40): + | F: Fluorescence of colonies (Serratia marcescens 40): + | G: Growth of colonies (Serratia marcescens 40): + | C: Color of colonies [6]: − | F: Fluorescence of colonies [6]: − | G: Growth of colonies [6]: + | C: Color of colonies (Escherichia coli): y-o | D: Diffusion around colonies (Escherichia coli): +/− | G: Growth of colonies (Escherichia coli): + | I: Intensity of color (Escherichia coli): + | L: Localization on colonies (Escherichia coli): + | S: Size of colonies (Escherichia coli): 1 mm | C: Color of colonies [7]: − | F: Fluorescence of colonies [7]: − | G: Growth of colonies [7]: + | C: Color of colonies [8]: + | F: Fluorescence of colonies [8]: + | G: Growth of colonies [8]: + | C: Color of colonies [9]: + | F: Fluorescence of colonies [9]: + | G: Growth of colonies [9]: + | C: Color of colonies (Salmonella bongori 81): +/− | F: Fluorescence of colonies (Salmonella bongori 81): +/− | G: Growth of colonies (Salmonella bongori 81): + | C: Color of colonies (Shigella boydii 135): − | F: Fluorescence of colonies (Shigella boydii 135): − | G: Growth of colonies (Shigella boydii 135): + | C: Color of colonies [10]: +/− | F: Fluorescence of colonies [10]: − | G: Growth of colonies [10]: + | C: Color of colonies (Citrobacter freundii 181): + | F: Fluorescence of colonies (Citrobacter freundii 181): + | G: Growth of colonies (Citrobacter freundii 181): + | C: Color of colonies (Enterobacter cloacae 245): ++ | F: Fluorescence of colonies (Enterobacter cloacae 245): ++ | G: Growth of colonies (Enterobacter cloacae 245): + | C: Color of colonies [11]: − | F: Fluorescence of colonies [11]: − | G: Growth of colonies [11]: +/− | F: Fluorescence of colonies (Staphylococcus aureus 2): − | G: Growth of colonies (Staphylococcus aureus 2): +/− | C: Color of colonies (Staphylococcus aureus 2; footnote 2: S. aureus natural color): −

From patent US8940909B2, “Indicator platform” (Biosynth AG, priority 2009, dated 2015)
